Target: T1, Der p 1 allergen (Dermatophagoides pteronyssinus, UniProt P08176)
T1 sequence (P08176 99-320): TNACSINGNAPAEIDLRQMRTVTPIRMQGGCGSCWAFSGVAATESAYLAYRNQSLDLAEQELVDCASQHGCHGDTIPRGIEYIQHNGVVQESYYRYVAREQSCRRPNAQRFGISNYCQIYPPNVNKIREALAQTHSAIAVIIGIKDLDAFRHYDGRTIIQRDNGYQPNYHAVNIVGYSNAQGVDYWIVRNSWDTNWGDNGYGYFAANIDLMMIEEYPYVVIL
Experiment: ELISA method for Der p 1 Allergen (level of allergen recovered after exposure to active)
Assay type: biochemical
Details: 10 min exposure to Ag, 62.5 ng/ml Ag in plate
Experimental: Several samples were tested using a standard Enzyme Linked Immunosorbent Assay, (ELISA). The ELISA method for Der p 1 Allergen was utilized. Der p 1 allergen is a standardized allergen. The ELISA method provides quantitative results correlating to the level of allergen recovered in the test.
In the ELISA method for Der p 1 Allergen, the coating antibody is Anti-Der p1 mAb 5H8, supplied as a HPLC purified stock solution at 2 mg/ml in phosphate buffered saline. The coating antibody was diluted in coating buffer (12 μl in 12 ml). 100 μl of the diluted coating antibody was dispensed in each well. The plate was held overnight at 4° C. Then the coating antibody was dumped from the plate and the plate was blotted dry. The well was washed 3 times with PBS-T and blotted dry. Next, 100 μl per well of blocking buffer (BSA PBS-T) was added and incubated for 30 minutes at room temperature. A standard curve (doubling dilutions between 250-0.5 ng/ml) was prepared. The experimental samples were prepared. “Controls” are actives exposed to the plate before addition of Ag. The exposure time was 1 hour. The Ag level used in the plate was 62.5 ng/ml as is for the Ag level in the active. “Samples” are Actives exposed to Ag before addition to the plate. Exposure time was 10 minutes before incubation in the plate for 1 hour. Actives were used in 1:1 ratio with 125 ng/ml Ag (yield 62.5 ng/ml Ag in test plate).
The plate was then washed, filled with standards, blanks, controls and samples and incubated for 1 hour. The detecting antibody was prepared. Next, the plate was washed and the detecting antibody was added to each well. The conjugate was prepared. The plate was washed and the conjugate was added. Just before washing the conjugate from the plate, H2O2 was added to the substrate solution. The plate was washed and the substrate was added. The plate was read when the absorbance of 250 ng/ml antigen standard (at 405 nm) reached 2.0-2.4.
The active levels in the table are listed in ppm and are diluted in half by antigen during testing.

[1] = diluent water, active 15,000 ppm (diluted in half by antigen during testing)
[2] = diluent water, active 10,000 ppm (diluted in half by antigen during testing)

`CCCCCCCCCCCCN(CCCN)CCCN` [N,N-bis(3-aminopropyl) dodecylamine] was tested, and the “% Reduction” value [1] was 99% and the “% Reduction” value (diluent water, active 50,000 ppm (diluted in half by antigen during testing)) was 100%.
`O=C1O[C@H]([C@@H](O)CO)C(O)=C1O` [ascorbic acid] was tested, and the “% Reduction” value [2] was 91%.
For `O=C(O)CC(O)(CC(=O)O)C(=O)O` [citric acid], the “% Reduction” value (diluent water, active 5,000 ppm (diluted in half by antigen during testing)) was 100%.
With `CC(=O)C1C(=O)C=C(C)OC1=O` (stereo not drawn) [dehydroacetic acid] the “% Reduction” value (diluent ethoxylated alcohol, active 2,500 ppm (diluted in half by antigen during testing)) was 100%.
For `O=C1O[C@H]([C@H](O)CO)C(O)=C1O` [erythorbic acid], the “% Reduction” value [2] was 96%.
For `CC(O)C(=O)O` (stereo not drawn) [lactic acid], the “% Reduction” value (diluent water, active 3,500 ppm (diluted in half by antigen during testing)) was 95%.
With `O=C([O-])[O-].[Na+].[Na+]` [sodium carbonate] the “% Reduction” value (diluent water, active 2,500 ppm (diluted in half by antigen during testing)) was 100%.
With `O=C([O-])CN(CCN(CC(=O)[O-])CC(=O)[O-])CC(=O)[O-].[Na+].[Na+].[Na+].[Na+]` [tetrasodium ethylene diamine tetraacetate] the “% Reduction” value [1] was 91%.
